{
  "source": "patent US11447440B2",
  "about": "“Treprostinil monohydrate crystals and methods for preparation thereof” (CHIROGATE INTERNATIONAL INC., priority 2020, dated 2022)",
  "origin": "cited, not measured here",
  "conditions": "for Treprostinil dimer formation on standing: stability tests",
  "note": "Read-outs that look alike come from different tables or passages of the source.",
  "data": [
    {"smiles": "CCCCC[C@H](O)CC[C@@H]1[C@H]2Cc3c(cccc3OCC(=O)O)C[C@H]2C[C@H]1O.O", "note": "[Treprostinil monohydrate crystal]", "values": [
      {"measurement": "Treprostinil dimer formation", "setting": "accelerated stability tests at 25° C., 30° C. and 40° C. for 6 months (Lot No. 01M07033)", "value": "almost negligible"},
      {"measurement": "stability in comparison with the anhydrous Treprostinil crystal", "setting": "storage at room temperature over a long period of time", "value": "more stable"}
    ]},
    {"smiles": "CCCCC[C@H](O)CC[C@@H]1[C@H]2Cc3cccc(OCC(=O)O)c3C[C@H]2C[C@H]1O", "note": "[anhydrous Treprostinil]", "values": [
      {"measurement": "Treprostinil dimer formation on standing", "setting": "at 5° C.", "value": "negligible"},
      {"measurement": "Treprostinil dimer formation on standing", "setting": "at higher temperature (than 25° C.)", "value": "increased"},
      {"measurement": "Treprostinil dimer formation on standing", "setting": "standing at 25° C.", "value": "continuing to form"}
    ]}
  ]
}
